Results taken from ChEMBL document CHEMBL1201862, “PubChem BioAssay data set” (2004).
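Five concentrations, 48 hours, 96-well plates. GI50 = concentration required for 50% inhibition of growth.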 Active and inactive are the calls of the source. Rule as the data show it: active = GI50 up to about 1.1 µM and inactive = higher.

Legend:
Assay in all cases: inhibition of tumour cell growth, NCI panel, 48 h
[1] = tested on: MDA-MB-231
[2] = tested on: HL-60
[3] = tested on: LOX IMVI
[4] = tested on: SK-MEL-2
[5] = tested on: COLO 205
[6] = tested on: Hs-578T
[7] = tested on: MCF7
[8] = tested on: SF-268
[9] = tested on: HCT-15
[10] = tested on: ACHN
[11] = tested on: MOLT-4
[12] = tested on: SF-539
[13] = tested on: 786-0
[14] = tested on: UACC-257
[15] = tested on: NCI-H226
[16] = tested on: KM12
[17] = tested on: Malme-3M
[18] = tested on: TK-10
[19] = tested on: UACC-62
[20] = tested on: OVCAR-3

| Structure (SMILES) | GI50 [1] | GI50 [2] | GI50 [3] | GI50 [4] | GI50 [5] | GI50 [6] | GI50 [7] | GI50 [8] | GI50 [9] [µM] | GI50 [10] | GI50 [11] | GI50 [12] | GI50 [13] | GI50 [14] | GI50 [15] | GI50 [16] | GI50 [17] | GI50 [18] | GI50 [19] | GI50 [20] |
| --- | --- | --- | --- | --- | --- | --- | --- | --- | --- | --- | --- | --- | --- | --- | --- | --- | --- | --- | --- | --- |
| CC(=O)Nc1ccc(-c2nc3ccccc3s2)cc1Cl | 67.8 µM (inactive) | > 100 µM (inactive) | > 86.5 µM (inactive) | > 100 µM (inactive) | > 100 µM (inactive) | 17.9 µM (inactive) | < 0.0399 µM (active) | 56.8 µM (inactive) | 41.4 | > 74 µM (inactive) | > 83.4 µM (inactive) | 16.3 µM (inactive) | > 78.3 µM (inactive) | > 41.1 µM (inactive) | 0.762 µM (active) | 57.4 µM (inactive) | > 100 µM (inactive) | 0.0664 µM (active) | > 73.5 µM (inactive) |  |
| Nc1ccc(-c2ccc(Nc3cc(S(=O)(=O)O)c(N)c4c3C(=O)c3ccccc3C4=O)cc2)c(S(=O)(=O)O)c1 | > 100 µM (inactive) | > 100 µM (inactive) | > 100 µM (inactive) | > 100 µM (inactive) | > 100 µM (inactive) | > 100 µM (inactive) | > 100 µM (inactive) | > 100 µM (inactive) | > 100 | > 100 µM (inactive) | 41.8 µM (inactive) | > 100 µM (inactive) | > 100 µM (inactive) | > 100 µM (inactive) | > 100 µM (inactive) | > 100 µM (inactive) | > 100 µM (inactive) | > 100 µM (inactive) | > 100 µM (inactive) | > 100 µM (inactive) |
| c1cncc(CNCc2cccnc2)c1 | > 100 µM (inactive) | 3.6 µM (inactive) | > 100 µM (inactive) | > 100 µM (inactive) | > 100 µM (inactive) | > 100 µM (inactive) | > 100 µM (inactive) | > 100 µM (inactive) | > 100 | > 100 µM (inactive) | > 100 µM (inactive) | > 100 µM (inactive) | > 100 µM (inactive) | > 100 µM (inactive) | > 100 µM (inactive) | > 100 µM (inactive) | > 100 µM (inactive) | > 100 µM (inactive) | > 100 µM (inactive) | > 100 µM (inactive) |
| Cc1ccc(S(=O)(=O)N/N=C2\CC3C4C=CC3C2C4)cc1 (centres undefined) | > 100 µM (inactive) | > 100 µM (inactive) | > 100 µM (inactive) | > 100 µM (inactive) | > 100 µM (inactive) | > 100 µM (inactive) | > 100 µM (inactive) | > 100 µM (inactive) | > 100 | > 100 µM (inactive) | > 100 µM (inactive) | > 100 µM (inactive) | > 100 µM (inactive) | > 100 µM (inactive) | > 100 µM (inactive) | > 100 µM (inactive) | > 100 µM (inactive) | > 100 µM (inactive) | > 100 µM (inactive) | > 100 µM (inactive) |
| CC(C)(C)C(=O)C(C#N)C(=O)C(C)(C)C | > 100 µM (inactive) | > 100 µM (inactive) | > 100 µM (inactive) | > 100 µM (inactive) | > 100 µM (inactive) | > 100 µM (inactive) | > 100 µM (inactive) | > 100 µM (inactive) | > 100 | > 100 µM (inactive) | > 100 µM (inactive) | > 100 µM (inactive) | > 100 µM (inactive) | > 100 µM (inactive) | > 100 µM (inactive) | > 100 µM (inactive) | > 100 µM (inactive) | > 100 µM (inactive) |  | > 100 µM (inactive) |
| COc1ccccc1CC(=O)C(O)(C(F)(F)F)C(F)(F)F | > 100 µM (inactive) | > 100 µM (inactive) | > 100 µM (inactive) | > 100 µM (inactive) | > 100 µM (inactive) | > 100 µM (inactive) | > 100 µM (inactive) | > 100 µM (inactive) | > 100 | > 100 µM (inactive) | > 100 µM (inactive) | > 100 µM (inactive) | > 100 µM (inactive) | > 100 µM (inactive) | > 100 µM (inactive) | > 100 µM (inactive) | > 100 µM (inactive) | > 100 µM (inactive) | > 100 µM (inactive) | > 100 µM (inactive) |
| N#CC(C#N)=CNC(=S)c1ccncc1 | > 100 µM (inactive) | 48.1 µM (inactive) | > 100 µM (inactive) | > 100 µM (inactive) | 45.1 µM (inactive) | 57.4 µM (inactive) | 76.9 µM (inactive) | 61.1 µM (inactive) | 37.4 | 34.8 µM (inactive) | 64.3 µM (inactive) | 23.1 µM (inactive) | > 100 µM (inactive) | > 100 µM (inactive) | > 100 µM (inactive) | > 100 µM (inactive) | > 100 µM (inactive) |  | > 100 µM (inactive) | 0.117 µM (active) |
| CCCCCCCC(=O)OC[n+]1ccc(-c2c(COC(=O)NC(C)C)c(COC(=O)NC(C)C)c3n2CCC3)cc1 | 48.8 µM (inactive) | 14.8 µM (inactive) | 20.1 µM (inactive) | 22.1 µM (inactive) | 48.9 µM (inactive) | 52.6 µM (inactive) | 30.2 µM (inactive) | 25.8 µM (inactive) | 52.4 | 20.4 µM (inactive) | 13.3 µM (inactive) | 23.1 µM (inactive) | 27 µM (inactive) | 70.6 µM (inactive) | > 78.5 µM (inactive) | > 100 µM (inactive) | 44.9 µM (inactive) | > 67.5 µM (inactive) | 13.8 µM (inactive) | > 62.7 µM (inactive) |
| CN1C(NCCO)=NS(=O)(=O)c2ccccc21 | > 100 µM (inactive) | > 100 µM (inactive) | > 100 µM (inactive) | > 100 µM (inactive) | > 100 µM (inactive) | > 100 µM (inactive) | > 100 µM (inactive) | > 100 µM (inactive) | > 100 | > 100 µM (inactive) | > 100 µM (inactive) | > 100 µM (inactive) | > 100 µM (inactive) | > 100 µM (inactive) | > 100 µM (inactive) | > 100 µM (inactive) |  | > 100 µM (inactive) | > 100 µM (inactive) | > 100 µM (inactive) |
| c1ccc2oc(-c3ccc(-c4nc5ccccc5o4)c4c3CC4)nc2c1 | > 100 µM (inactive) | > 100 µM (inactive) | > 100 µM (inactive) | > 100 µM (inactive) | > 100 µM (inactive) | > 100 µM (inactive) | > 100 µM (inactive) | > 100 µM (inactive) | > 100 | > 100 µM (inactive) | > 100 µM (inactive) | > 100 µM (inactive) | > 100 µM (inactive) | > 100 µM (inactive) | > 100 µM (inactive) | > 100 µM (inactive) | > 100 µM (inactive) | > 100 µM (inactive) | > 100 µM (inactive) | > 100 µM (inactive) |
| COc1ccc2c(c1)N=C1CSC(c3ccccc3Cl)N1C2 (centres undefined) | 27.4 µM (inactive) | 0.411 µM (active) | 6.55 µM (inactive) | 15.8 µM (inactive) | 14.9 µM (inactive) | 45.2 µM (inactive) | 12.2 µM (inactive) | 16.4 µM (inactive) | 9.68 | 11.8 µM (inactive) | 0.659 µM (active) | 5.48 µM (inactive) | 11.5 µM (inactive) | 16.3 µM (inactive) | 24 µM (inactive) | 4.6 µM (inactive) | 23.4 µM (inactive) | 17.1 µM (inactive) | 4.08 µM (inactive) |  |
| C#CC(O)/C=C/CCCCCCC#CC/C=C\CC#CCCCCCC/C=C/C(O)C#C (centres undefined) | 2.99 µM (inactive) | 1.77 µM (inactive) | 0.0104 µM (active) | 2.99 µM (inactive) | 2 µM (inactive) | 5.9 µM (inactive) | 10.8 µM (inactive) | 2.96 µM (inactive) | 2.55 | 3.9 µM (inactive) | 0.111 µM (active) | 24.5 µM (inactive) | 2.09 µM (inactive) | 2.39 µM (inactive) | 5.32 µM (inactive) | 2.32 µM (inactive) |  | 2.99 µM (inactive) | 2.64 µM (inactive) | 2.7 µM (inactive) |
| CCCCCCCCCCCCCCCC(=O)ON1C(=S)NC(C)(c2ccccc2)C1=S (centres undefined) | > 100 µM (inactive) | 94.6 µM (inactive) | 45.2 µM (inactive) | > 100 µM (inactive) | > 100 µM (inactive) | > 100 µM (inactive) | > 100 µM (inactive) | 73.6 µM (inactive) | 51.4 | > 100 µM (inactive) | 33.5 µM (inactive) | > 100 µM (inactive) | 60 µM (inactive) | > 100 µM (inactive) | 87.9 µM (inactive) | > 100 µM (inactive) | > 100 µM (inactive) | > 100 µM (inactive) | > 100 µM (inactive) | > 100 µM (inactive) |
| CC(C)N(/C(F)=N\C(=O)Nc1ccccc1C(F)(F)F)C(C)C | 47.3 µM (inactive) | 31 µM (inactive) | 32 µM (inactive) | 22.8 µM (inactive) | 44.7 µM (inactive) | 60.3 µM (inactive) | 35.6 µM (inactive) | 89.3 µM (inactive) | 34.3 | 39.4 µM (inactive) | > 10 µM (inactive) | 92 µM (inactive) | 69 µM (inactive) | 55.1 µM (inactive) | > 100 µM (inactive) | 42.5 µM (inactive) | 31.6 µM (inactive) | 52.5 µM (inactive) | > 10 µM (inactive) | 32 µM (inactive) |
